Data: patent US9108902B2, “Deuterated 2-amino-3-hydroxypropanoic acid derivatives” (Concert Pharmaceuticals, Inc., priority 2008, dated 2015)
Where two headings read alike, the source gives them in different places.

Assays:
[1] = Pharmacokinetic study in chimps after oral and intravenous co-dosing: plasma levels by LC-MS/MS; assay type: in vivo; details: for Cmax / AUC(0-t): plasma, 50 mg, co-administered 1:1; for AUC(0-t): read-out: AUC(0-24)
Method: (§1) A 1:1 mixture of the two compounds was then prepared containing a final concentration of 1 mg/mL of each compound and the mixture was then sterile filtered through a 0.2-μm filter.
Two chimps (one male and one female) were used in each of the oral and intravenous studies. Animals were fasted overnight prior to administration of compounds. All animals were sedated with ketamine (approximately 10 mg/kg) and/or telazol (approximately 5 mg/kg) prior to dosing. Intravenous administration was achieved by IV infusion of 50 mg of each compound (50 mL total dosing solution) over 30 minutes. Oral administration was achieved by oral gavage of a single 50 mg dose of each compound (50 mL total dosing solution). Blood samples (4.5 mL) were collected from the dosed chimps at various times prior to and after dosing. For intravenous administrations blood samples were collected at 0 min (preinfusion), 15 min, 29.5 min (immediately before the end of the infusion), then 6, 15, 30 and 45 min, and 1, 2, 4, 6, 8, 10, 12 and 24 hr after the infusion is stopped. For oral administrations, blood samples were collected at 0 min (predose), 15 and 30 min, and 1, 1.5, 2, 4, 6, 8, 10 and 12 hr postdose.
Blood samples were placed in tubes containing sodium heparin, mixed and stored on ice until centrifuged. Within 30 minutes of collection, plasma was isolated by centrifuging the blood samples and dividing the resulting plasma (approx. 2 ml) between two 96-deepwell plates. Each plate was sealed and stored at −70° C. until further analysis by LC-MS/MS using an Applied Bio-systems API 4000 mass spectrometer.
(§2) Samples were analyzed by LC-MS/MS using an Applied Bio-systems API 4000 mass spectrometer.

[2] = Pharmacokinetic study in chimps after oral and intravenous co-dosing: unmetabolized compound in urine; assay type: in vivo; details: both sexes, chimpanzee, 50 mg of each compound co-administered, average of chimps, urine collected 24 hours post-dose, read-out: Unmetabolized Compound Found in Urine
Method: as §1
Two chimps (one male and one female) were used in each of the oral and intravenous studies. Animals were fasted overnight prior to administration of compounds. All animals were sedated with ketamine (approximately 10 mg/kg) and/or telazol (approximately 5 mg/kg) prior to dosing. Intravenous administration was achieved by IV infusion of 50 mg of each compound (50 mL total dosing solution) over 30 minutes. Oral administration was achieved by oral gavage of a single 50 mg dose of each compound (50 mL total dosing solution). Blood samples (4.5 mL) were collected from the dosed chimps at various times prior to and after dosing.
Urine was collected for 24 hours post-dose for each test animal and stored on ice. Total volume was measured and an aliquot was stored at −70° C. until further analysis
as §2

[3] = iv, Chimp 1, IV infusion 50 mg of each compound over 30 min
[4] = iv, Chimp 2, IV infusion 50 mg of each compound over 30 min
[5] = po, Chimp 3, PO gavage single 50 mg dose of each compound
[6] = po, Chimp 4, PO gavage single 50 mg dose of each compound
[7] = following either intravenous or oral administration to chimps

SMILES | Cmax [1, 3] | AUC(0-t) [1, 3] | Cmax [1, 4] | AUC(0-t) [1, 4] | Cmax [1, 5] | AUC(0-t) [1, 5] | Cmax [1, 6] | AUC(0-t) [1, 6] | concentration at 24 h ([2]; IV) | concentration at 24 h ([2]; PO) | AUC compared with lacosamide [1, 7] | Cmax compared with lacosamide [1, 7]
COC[C@@H](NC(C)=O)C(=O)NCc1ccccc1 [Lacosamide, 2(R)-acetamido-N-benzyl-3-methoxypropionamide, reference compound] | 4770 ng/mL | 27600 ng·h/mL | 1560 ng/mL | 23000 ng·h/mL | 1370 ng/mL | 20400 ng·h/mL | 1090 ng/mL | 15900 ng·h/mL | 9520 ng/mL | 2720 ng/mL |  | 
[2H]C([2H])([2H])OC[C@@H](NC(=O)C([2H])([2H])[2H])C(=O)NCc1ccccc1 [Compound 120, (R)-2-(Acetamido-d3)—N-benzyl-3-(methoxy-d3)propanamide] | 5280 ng/mL | 31300 ng·h/mL | 1690 ng/mL | 25400 ng·h/mL | 1540 ng/mL | 23100 ng·h/mL | 1180 ng/mL | 18000 ng·h/mL | 11000 ng/mL | 3200 ng/mL | higher | higher
